Measured values reported in ChEMBL document CHEMBL2385073, “Synthesis and evaluation of cholecystokinin trimers: a multivalent approach to pancreatic cancer detection and treatment” (Bioorg Med Chem Lett, 2013).

Tests used:
Format in all cases: cell-based
[1] = molecular target: T1, Gastrin/cholecystokinin type B receptor (Homo sapiens, UniProt P32239); assay: Displacement of Eu-DTPA-CCK8 from CCK2 receptor in HEK293 cells after 2 hrs by TRF assay
T1 sequence (P32239 whole entry): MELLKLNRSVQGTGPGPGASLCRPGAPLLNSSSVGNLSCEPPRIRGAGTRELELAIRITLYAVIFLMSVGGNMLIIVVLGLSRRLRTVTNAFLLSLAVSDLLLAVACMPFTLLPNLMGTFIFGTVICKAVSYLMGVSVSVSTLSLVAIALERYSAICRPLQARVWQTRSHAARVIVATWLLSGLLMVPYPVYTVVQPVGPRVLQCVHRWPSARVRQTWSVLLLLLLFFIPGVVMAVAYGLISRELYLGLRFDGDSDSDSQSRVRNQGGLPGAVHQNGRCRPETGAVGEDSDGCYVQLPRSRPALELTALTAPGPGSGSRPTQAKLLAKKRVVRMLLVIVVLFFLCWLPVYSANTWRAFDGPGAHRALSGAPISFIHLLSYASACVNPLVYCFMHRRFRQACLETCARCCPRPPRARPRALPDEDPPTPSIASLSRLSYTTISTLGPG

[2] = molecular target: T2, Gastrin/cholecystokinin type B receptor (Homo sapiens) (UniProt P32239); assay: Displacement of Eu-DTPA-CCK8 from CCK2 receptor in HEK293 cells after 2 hrs by TRF assay relative to CCK4
T2 sequence (whole entry): T1 sequence (P32239 whole entry)

Melanocortin receptor 4 = Melanocortin receptor 4 (Homo sapiens, UniProt P32245); assay: Binding affinity to MC4R in HEK293 cells
Chain of Melanocortin receptor 4 (P32245 whole entry): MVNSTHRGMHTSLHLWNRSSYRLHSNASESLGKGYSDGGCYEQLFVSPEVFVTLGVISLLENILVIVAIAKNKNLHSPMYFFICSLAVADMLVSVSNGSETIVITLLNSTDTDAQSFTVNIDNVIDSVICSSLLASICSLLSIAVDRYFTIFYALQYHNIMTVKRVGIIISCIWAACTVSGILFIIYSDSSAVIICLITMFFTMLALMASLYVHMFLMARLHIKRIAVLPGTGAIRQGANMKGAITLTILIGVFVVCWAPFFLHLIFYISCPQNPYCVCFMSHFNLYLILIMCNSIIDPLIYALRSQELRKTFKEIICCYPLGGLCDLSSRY

| Structure (SMILES) | IC50 [1] | fold change (FC) [2] | IC50 (Melanocortin receptor 4) |
| --- | --- | --- | --- |
| C#CCCC(=O)NCCCC[C@H](NC(C)=O)C(=O)N[C@@H](Cc1c[nH]c2ccccc12)C(=O)N(C)[C@@H](CCCC)C(=O)N[C@@H](CC(=O)O)C(=O)N[C@@H](Cc1ccccc1)C(=O)Nc1cn(CC(=O)NCC(=O)N2CCC[C@H]2C(=O)NCC(=O)NCCCC(CCCNC(=O)CNC(=O)[C@@H]2CCCN2C(=O)CNC(=O)Cn2cc(NC(=O)[C@H](Cc3ccccc3)NC(=O)[C@H](CC(=O)O)NC(=O)[C@H](CCCC)N(C)C(=O)[C@H](Cc3c[nH]c4ccccc34)NC(=O)[C@H](CCCCNC(=O)CCC#C)NC(C)=O)nn2)(NC(=O)CNC(=O)CNC(=O)[C@@H]2CCCN2C(=O)CNC(=O)Cn2cc(NC(=O)[C@H](Cc3ccccc3)NC(=O)[C@H](CC(=O)O)NC(=O)[C@H](CCCC)N(C)C(=O)[C@H](Cc3c[nH]c4ccccc34)NC(=O)[C@H](CCCCNC(=O)CCC#C)NC(C)=O)nn2)C(=O)NCCC(N)=O)nn1 | 6 nM | 2.5 | – |
| C#CCCC(=O)NCCCC[C@H](NC(C)=O)C(=O)N[C@@H](CO)C(=O)N[C@@H](CCCC)C(=O)N[C@@H](CCC(=O)O)C(=O)N[C@@H](Cc1cnc[nH]1)C(=O)N[C@H](Cc1ccccc1)C(=O)N[C@@H](CCCNC(=N)N)C(=O)N[C@@H](Cc1c[nH]c2ccccc12)C(=O)Nc1cn(CC(=O)NCCCC(CCCNC(=O)Cn2cc(NC(=O)[C@H](Cc3c[nH]c4ccccc34)NC(=O)[C@H](CCCNC(=N)N)NC(=O)[C@@H](Cc3ccccc3)NC(=O)[C@H](Cc3cnc[nH]3)NC(=O)[C@H](CCC(=O)O)NC(=O)[C@H](CCCC)NC(=O)[C@H](CO)NC(=O)[C@H](CCCCNC(=O)CCC#C)NC(C)=O)nn2)(NC(=O)CNC(=O)Cn2cc(NC(=O)[C@H](Cc3c[nH]c4ccccc34)NC(=O)[C@H](CCCNC(=N)N)NC(=O)[C@@H](Cc3ccccc3)NC(=O)[C@H](Cc3cnc[nH]3)NC(=O)[C@H](CCC(=O)O)NC(=O)[C@H](CCCC)NC(=O)[C@H](CO)NC(=O)[C@H](CCCCNC(=O)CCC#C)NC(C)=O)nn2)C(=O)NCCC(N)=O)nn1 (stereo not given in full) | – | – | 12 nM |
| C#CCCC(=O)NCCCC[C@H](NC(C)=O)C(=O)N[C@@H](Cc1c[nH]c2ccccc12)C(=O)N(C)[C@@H](CCCC)C(=O)N[C@@H](CC(=O)O)C(=O)N[C@@H](Cc1ccccc1)C(=O)Nc1cn(CC(=O)NCCC(=O)NCCCC(CCCNC(=O)CCNC(=O)Cn2cc(NC(=O)[C@H](Cc3ccccc3)NC(=O)[C@H](CC(=O)O)NC(=O)[C@H](CCCC)N(C)C(=O)[C@H](Cc3c[nH]c4ccccc34)NC(=O)[C@H](CCCCNC(=O)CCC#C)NC(C)=O)nn2)(NC(=O)CNC(=O)CCNC(=O)Cn2cc(NC(=O)[C@H](Cc3ccccc3)NC(=O)[C@H](CC(=O)O)NC(=O)[C@H](CCCC)N(C)C(=O)[C@H](Cc3c[nH]c4ccccc34)NC(=O)[C@H](CCCCNC(=O)CCC#C)NC(C)=O)nn2)C(=O)NCCC(N)=O)nn1 | 5.2 nM | 3 | – |

Continued, values first:

| IC50 [1] | fold change (FC) [2] | IC50 (Melanocortin receptor 4) | Structure (SMILES) |
| --- | --- | --- | --- |
| 16 nM | – | – | C#CCCC(=O)NCCCC[C@H](NC(C)=O)C(=O)N[C@@H](Cc1c[nH]c2ccccc12)C(=O)N(C)[C@@H](CCCC)C(=O)N[C@@H](CC(=O)O)C(=O)N[C@@H](Cc1ccccc1)C(N)=O |
| 12 nM | 1.5 | – | C#CCCC(=O)NCCCC[C@H](NC(C)=O)C(=O)N[C@@H](Cc1c[nH]c2ccccc12)C(=O)N(C)[C@@H](CCCC)C(=O)N[C@@H](CC(=O)O)C(=O)N[C@@H](Cc1ccccc1)C(=O)Nc1cn(CC(=O)NCCCC(CCCNC(=O)Cn2cc(NC(=O)[C@H](Cc3ccccc3)NC(=O)[C@H](CC(=O)O)NC(=O)[C@H](CCCC)N(C)C(=O)[C@H](Cc3c[nH]c4ccccc34)NC(=O)[C@H](CCCCNC(=O)CCC#C)NC(C)=O)nn2)(NC(=O)CNC(=O)Cn2cc(NC(=O)[C@H](Cc3ccccc3)NC(=O)[C@H](CC(=O)O)NC(=O)[C@H](CCCC)N(C)C(=O)[C@H](Cc3c[nH]c4ccccc34)NC(=O)[C@H](CCCCNC(=O)CCC#C)NC(C)=O)nn2)C(=O)NCCC(N)=O)nn1 |
| 8.5 nM | 2 | – | C#CCCC(=O)NCCCC[C@H](NC(C)=O)C(=O)N[C@@H](Cc1c[nH]c2ccccc12)C(=O)N(C)[C@@H](CCCC)C(=O)N[C@@H](CC(=O)O)C(=O)N[C@@H](Cc1ccccc1)C(=O)Nc1cn(CC(=O)NCCC(=O)NCCC(=O)NCCCC(CCCNC(=O)CCNC(=O)CCNC(=O)Cn2cc(NC(=O)[C@H](Cc3ccccc3)NC(=O)[C@H](CC(=O)O)NC(=O)[C@H](CCCC)N(C)C(=O)[C@H](Cc3c[nH]c4ccccc34)NC(=O)[C@H](CCCCNC(=O)CCC#C)NC(C)=O)nn2)(NC(=O)CNC(=O)CCNC(=O)CCNC(=O)Cn2cc(NC(=O)[C@H](Cc3ccccc3)NC(=O)[C@H](CC(=O)O)NC(=O)[C@H](CCCC)N(C)C(=O)[C@H](Cc3c[nH]c4ccccc34)NC(=O)[C@H](CCCCNC(=O)CCC#C)NC(C)=O)nn2)C(=O)NCCC(N)=O)nn1 |
